Where two headings read alike, the source gives them in different places. Each block holds one molecule with its values, some of them ahead of it.
Columns and labels:
Assay in all cases: biochemical
Set-up in all cases: DiscoveRx KINOMEscan active site-directed competition binding; percent of control kinase bound to immobilised ligand
EGFR(L861Q) = EGFR(L861Q) (Homo sapiens, UniProt P00533, L861Q)
[1] = target: T1, JAK3(JH1domain-catalytic) (Homo sapiens, UniProt P52333)
T1 construct: JH1domain-catalytic
T1 sequence (P52333 1-1124): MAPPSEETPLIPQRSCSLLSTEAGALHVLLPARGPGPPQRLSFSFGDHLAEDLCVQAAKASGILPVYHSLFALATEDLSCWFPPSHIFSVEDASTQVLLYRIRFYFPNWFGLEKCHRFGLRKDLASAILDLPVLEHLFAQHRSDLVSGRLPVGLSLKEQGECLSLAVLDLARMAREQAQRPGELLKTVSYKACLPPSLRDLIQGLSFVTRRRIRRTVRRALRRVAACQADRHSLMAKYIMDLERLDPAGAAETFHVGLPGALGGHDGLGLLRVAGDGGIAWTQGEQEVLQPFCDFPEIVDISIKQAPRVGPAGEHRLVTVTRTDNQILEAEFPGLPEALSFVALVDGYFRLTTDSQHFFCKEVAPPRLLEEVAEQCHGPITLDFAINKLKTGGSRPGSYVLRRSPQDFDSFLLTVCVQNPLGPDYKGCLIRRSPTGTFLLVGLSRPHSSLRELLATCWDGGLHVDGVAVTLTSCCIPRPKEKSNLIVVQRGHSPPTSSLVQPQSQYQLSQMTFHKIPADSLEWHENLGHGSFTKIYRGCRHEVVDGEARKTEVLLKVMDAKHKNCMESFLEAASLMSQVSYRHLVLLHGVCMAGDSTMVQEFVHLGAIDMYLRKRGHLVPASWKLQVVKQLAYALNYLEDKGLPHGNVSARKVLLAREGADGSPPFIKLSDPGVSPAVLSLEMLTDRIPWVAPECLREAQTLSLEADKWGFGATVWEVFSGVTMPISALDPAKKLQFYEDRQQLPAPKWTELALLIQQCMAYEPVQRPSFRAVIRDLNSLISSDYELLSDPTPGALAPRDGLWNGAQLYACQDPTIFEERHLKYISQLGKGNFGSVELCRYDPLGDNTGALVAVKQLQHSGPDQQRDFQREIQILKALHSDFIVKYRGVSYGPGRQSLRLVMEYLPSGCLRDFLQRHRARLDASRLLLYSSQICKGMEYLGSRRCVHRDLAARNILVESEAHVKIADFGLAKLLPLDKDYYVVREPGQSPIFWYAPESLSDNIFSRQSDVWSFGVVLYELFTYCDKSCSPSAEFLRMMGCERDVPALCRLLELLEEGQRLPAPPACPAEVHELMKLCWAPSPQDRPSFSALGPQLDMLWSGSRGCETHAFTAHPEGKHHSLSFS

MLK1 = target: T2, MLK1 (Homo sapiens, UniProt P80192)
T2 construct: gene MAP3K9

ROS1 = ROS1 (Homo sapiens, UniProt P08922)
FAK = target: T3, FAK (Homo sapiens, UniProt Q05397)
T3 construct: gene PTK2

TNNI3K = target: T4, TNNI3K (Homo sapiens, UniProt Q59H18)
T4 sequence (Q59H18 1-835): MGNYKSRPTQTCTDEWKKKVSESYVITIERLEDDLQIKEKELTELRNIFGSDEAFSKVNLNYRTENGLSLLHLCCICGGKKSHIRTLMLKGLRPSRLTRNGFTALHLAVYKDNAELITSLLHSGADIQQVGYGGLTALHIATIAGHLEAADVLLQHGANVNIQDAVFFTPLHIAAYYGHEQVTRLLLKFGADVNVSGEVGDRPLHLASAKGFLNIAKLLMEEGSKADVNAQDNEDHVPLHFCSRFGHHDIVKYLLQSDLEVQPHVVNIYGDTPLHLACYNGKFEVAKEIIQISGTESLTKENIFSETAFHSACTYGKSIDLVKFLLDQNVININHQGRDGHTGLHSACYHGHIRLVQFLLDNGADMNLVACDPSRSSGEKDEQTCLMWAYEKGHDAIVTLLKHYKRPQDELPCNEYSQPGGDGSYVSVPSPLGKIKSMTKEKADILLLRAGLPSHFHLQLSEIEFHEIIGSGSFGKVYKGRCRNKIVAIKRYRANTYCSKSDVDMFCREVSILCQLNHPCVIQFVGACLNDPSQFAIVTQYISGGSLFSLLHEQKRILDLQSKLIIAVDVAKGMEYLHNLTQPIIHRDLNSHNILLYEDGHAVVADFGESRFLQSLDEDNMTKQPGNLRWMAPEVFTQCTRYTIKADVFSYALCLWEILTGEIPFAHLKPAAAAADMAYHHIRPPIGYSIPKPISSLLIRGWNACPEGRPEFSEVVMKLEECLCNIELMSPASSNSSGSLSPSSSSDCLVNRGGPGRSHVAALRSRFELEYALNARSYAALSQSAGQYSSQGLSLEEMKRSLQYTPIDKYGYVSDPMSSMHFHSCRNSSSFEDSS

CLK1 = CLK1 (Homo sapiens, UniProt P49759)
MET(M1250T) = MET(M1250T) (Homo sapiens, UniProt P08581, M1250T)
PKN1 = PKN1 (Homo sapiens, UniProt Q16512)
[2] = read-out: Niraparib (MK-4827) / %Ctrl @ 10000nM
[3] = read-out: Rucaparib / %Ctrl @ 10000nM, binding competition, % of control
[4] = read-out: Olaparib / %Ctrl @ 10000nM
[5] = read-out: Talazoparib (BMN 673) / %Ctrl @ 10000nM

Chain of PKN1 (Q16512 whole entry): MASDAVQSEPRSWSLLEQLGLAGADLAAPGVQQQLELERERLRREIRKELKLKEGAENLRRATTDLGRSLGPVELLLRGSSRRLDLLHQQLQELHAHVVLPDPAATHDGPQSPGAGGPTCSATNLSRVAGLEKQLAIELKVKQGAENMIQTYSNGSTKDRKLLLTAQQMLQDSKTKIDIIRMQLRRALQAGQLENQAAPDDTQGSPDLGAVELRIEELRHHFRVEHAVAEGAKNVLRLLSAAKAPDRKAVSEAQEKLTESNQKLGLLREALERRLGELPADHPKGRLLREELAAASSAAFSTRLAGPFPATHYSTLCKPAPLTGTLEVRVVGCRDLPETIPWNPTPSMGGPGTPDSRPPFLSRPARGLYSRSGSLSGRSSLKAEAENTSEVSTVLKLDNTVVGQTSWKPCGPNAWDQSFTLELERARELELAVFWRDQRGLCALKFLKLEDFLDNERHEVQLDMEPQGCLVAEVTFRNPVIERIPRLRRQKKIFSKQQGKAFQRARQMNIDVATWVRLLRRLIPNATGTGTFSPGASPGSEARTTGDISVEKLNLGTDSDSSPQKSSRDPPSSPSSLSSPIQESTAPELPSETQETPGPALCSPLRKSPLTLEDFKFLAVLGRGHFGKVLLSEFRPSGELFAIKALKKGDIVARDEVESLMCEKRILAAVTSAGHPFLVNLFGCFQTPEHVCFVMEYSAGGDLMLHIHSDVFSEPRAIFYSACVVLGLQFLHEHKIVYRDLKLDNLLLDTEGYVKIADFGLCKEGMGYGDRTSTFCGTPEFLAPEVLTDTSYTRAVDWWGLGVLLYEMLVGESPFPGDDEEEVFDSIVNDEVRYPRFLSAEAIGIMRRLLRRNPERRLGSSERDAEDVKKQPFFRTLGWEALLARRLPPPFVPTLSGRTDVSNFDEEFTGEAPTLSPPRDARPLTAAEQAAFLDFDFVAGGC
Chain of EGFR(L861Q) (P00533 whole entry L861Q): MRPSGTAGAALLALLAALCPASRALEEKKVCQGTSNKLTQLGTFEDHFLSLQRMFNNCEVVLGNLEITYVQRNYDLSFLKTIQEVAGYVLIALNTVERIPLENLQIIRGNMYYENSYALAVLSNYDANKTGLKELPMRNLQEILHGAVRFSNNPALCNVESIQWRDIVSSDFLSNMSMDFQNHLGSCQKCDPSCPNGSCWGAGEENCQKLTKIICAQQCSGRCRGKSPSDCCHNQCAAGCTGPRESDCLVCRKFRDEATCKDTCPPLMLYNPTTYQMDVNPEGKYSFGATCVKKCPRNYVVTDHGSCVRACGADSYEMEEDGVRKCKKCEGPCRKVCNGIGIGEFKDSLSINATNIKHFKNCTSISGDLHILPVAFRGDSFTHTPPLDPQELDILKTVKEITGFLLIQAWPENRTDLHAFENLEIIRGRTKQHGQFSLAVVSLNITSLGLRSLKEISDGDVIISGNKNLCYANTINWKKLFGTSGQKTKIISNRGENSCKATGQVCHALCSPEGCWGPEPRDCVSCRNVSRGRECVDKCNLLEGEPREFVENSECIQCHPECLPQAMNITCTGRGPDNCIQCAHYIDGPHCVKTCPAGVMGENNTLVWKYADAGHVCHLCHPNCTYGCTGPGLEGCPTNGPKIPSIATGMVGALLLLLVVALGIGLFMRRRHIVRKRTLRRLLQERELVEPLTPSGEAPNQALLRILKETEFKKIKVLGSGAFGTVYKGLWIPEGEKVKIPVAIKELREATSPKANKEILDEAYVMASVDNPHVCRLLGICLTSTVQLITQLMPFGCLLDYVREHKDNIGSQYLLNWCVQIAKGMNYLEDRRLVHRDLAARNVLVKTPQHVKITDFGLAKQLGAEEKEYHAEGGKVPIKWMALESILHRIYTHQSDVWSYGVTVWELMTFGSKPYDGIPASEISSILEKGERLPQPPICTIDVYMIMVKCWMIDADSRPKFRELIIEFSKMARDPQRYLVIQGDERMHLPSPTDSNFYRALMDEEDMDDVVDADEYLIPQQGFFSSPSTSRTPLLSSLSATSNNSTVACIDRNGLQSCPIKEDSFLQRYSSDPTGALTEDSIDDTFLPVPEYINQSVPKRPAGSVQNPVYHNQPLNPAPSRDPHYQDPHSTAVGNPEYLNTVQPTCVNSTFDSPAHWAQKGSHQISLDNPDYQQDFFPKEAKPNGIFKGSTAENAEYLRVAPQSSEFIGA
T3 sequence (Q05397 whole entry): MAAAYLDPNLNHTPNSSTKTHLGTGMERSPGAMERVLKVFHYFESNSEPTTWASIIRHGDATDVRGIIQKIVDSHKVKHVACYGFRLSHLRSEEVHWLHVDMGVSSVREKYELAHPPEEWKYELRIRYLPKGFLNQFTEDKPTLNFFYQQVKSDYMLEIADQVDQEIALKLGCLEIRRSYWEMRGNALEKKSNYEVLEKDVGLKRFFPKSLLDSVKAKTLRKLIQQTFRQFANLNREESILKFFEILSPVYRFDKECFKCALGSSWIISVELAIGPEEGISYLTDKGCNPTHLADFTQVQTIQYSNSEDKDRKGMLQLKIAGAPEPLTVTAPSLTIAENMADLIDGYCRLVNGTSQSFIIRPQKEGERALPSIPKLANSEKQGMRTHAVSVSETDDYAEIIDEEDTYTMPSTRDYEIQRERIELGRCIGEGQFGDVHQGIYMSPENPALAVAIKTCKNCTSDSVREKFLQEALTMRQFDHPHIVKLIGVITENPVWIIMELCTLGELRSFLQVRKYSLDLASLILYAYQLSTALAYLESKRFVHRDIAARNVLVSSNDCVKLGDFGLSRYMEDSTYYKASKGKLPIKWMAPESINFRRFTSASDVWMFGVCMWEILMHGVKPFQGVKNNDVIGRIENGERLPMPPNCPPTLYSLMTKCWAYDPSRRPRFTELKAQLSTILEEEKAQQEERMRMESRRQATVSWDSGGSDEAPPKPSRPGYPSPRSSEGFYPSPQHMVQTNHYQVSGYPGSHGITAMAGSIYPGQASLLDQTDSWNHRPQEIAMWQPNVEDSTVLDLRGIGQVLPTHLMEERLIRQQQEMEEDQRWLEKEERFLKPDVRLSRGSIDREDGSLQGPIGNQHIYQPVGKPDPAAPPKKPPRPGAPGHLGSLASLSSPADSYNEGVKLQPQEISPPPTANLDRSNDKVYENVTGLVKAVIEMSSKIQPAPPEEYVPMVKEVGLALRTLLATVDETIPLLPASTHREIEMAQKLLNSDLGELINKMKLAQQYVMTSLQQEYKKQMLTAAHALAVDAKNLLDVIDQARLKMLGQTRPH
T2 sequence (P80192 whole entry): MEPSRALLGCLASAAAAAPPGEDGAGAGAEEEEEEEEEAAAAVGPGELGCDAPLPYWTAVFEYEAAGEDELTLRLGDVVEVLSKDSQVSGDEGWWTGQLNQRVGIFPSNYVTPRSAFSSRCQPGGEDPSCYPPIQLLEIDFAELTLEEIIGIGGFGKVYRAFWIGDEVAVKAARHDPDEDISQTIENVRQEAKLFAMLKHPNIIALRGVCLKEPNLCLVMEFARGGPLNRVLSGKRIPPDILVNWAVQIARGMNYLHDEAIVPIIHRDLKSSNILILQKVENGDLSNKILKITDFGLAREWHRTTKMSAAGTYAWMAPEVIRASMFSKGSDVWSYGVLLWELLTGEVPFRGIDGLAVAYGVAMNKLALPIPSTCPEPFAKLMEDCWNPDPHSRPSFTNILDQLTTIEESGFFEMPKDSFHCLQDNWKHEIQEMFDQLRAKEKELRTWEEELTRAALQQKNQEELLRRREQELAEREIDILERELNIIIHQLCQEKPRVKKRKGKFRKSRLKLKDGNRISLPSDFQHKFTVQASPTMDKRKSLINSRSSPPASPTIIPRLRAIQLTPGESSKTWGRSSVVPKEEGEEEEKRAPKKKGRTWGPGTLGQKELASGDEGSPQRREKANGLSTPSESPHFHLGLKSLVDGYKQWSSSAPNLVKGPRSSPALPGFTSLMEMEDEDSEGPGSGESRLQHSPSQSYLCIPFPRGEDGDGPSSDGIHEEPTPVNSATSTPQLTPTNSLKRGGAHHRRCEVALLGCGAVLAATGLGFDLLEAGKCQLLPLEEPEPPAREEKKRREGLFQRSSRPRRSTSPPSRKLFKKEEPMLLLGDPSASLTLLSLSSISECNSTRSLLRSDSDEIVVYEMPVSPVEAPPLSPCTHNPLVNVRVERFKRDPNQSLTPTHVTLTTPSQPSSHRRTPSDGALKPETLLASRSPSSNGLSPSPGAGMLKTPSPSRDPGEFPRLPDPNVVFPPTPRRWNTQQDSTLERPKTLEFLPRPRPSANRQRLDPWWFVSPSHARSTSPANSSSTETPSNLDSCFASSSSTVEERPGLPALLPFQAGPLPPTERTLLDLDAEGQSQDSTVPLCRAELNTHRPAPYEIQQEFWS
Chain of CLK1 (P49759 whole entry): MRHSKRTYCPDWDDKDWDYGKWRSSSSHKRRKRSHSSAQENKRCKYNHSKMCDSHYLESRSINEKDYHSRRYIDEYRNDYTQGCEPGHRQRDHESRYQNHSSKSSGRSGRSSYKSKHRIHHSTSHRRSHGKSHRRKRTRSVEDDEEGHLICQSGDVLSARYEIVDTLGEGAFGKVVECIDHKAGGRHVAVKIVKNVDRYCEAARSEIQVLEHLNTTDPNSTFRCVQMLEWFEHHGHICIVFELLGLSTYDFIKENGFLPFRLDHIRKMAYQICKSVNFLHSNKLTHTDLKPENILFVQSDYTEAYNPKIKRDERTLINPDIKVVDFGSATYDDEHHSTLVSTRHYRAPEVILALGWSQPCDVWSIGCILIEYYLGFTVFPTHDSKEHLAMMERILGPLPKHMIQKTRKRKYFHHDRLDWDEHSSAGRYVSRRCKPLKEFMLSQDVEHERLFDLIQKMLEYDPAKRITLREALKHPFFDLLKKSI

Structure (SMILES): NC(=O)c1cccc2cn(-c3ccc([C@@H]4CCCNC4)cc3)nc12 [Niraparib]
percent of control binding at 10 µM (EGFR(L861Q); [2]): 88%
percent of control binding at 10 µM [1, 2]: 95%
percent of control binding at 10 µM (MLK1; [2]): 87%
percent of control binding at 10 µM (ROS1; [2]): 80%
percent of control binding at 10 µM (FAK; [2]): 100%
percent of control binding at 10 µM (TNNI3K; [2]): 95%
percent of control binding at 10 µM (CLK1; [2]): 48%
percent of control binding at 10 µM (MET(M1250T); [2]): 91%
percent of control binding at 10 µM (PKN1; [2]): 69%

percent of control binding at 10 µM (EGFR(L861Q); [3]): 70%
percent of control binding at 10 µM [1, 3]: 70%
percent of control binding at 10 µM (MLK1; [3]): 100%
percent of control binding at 10 µM (ROS1; [3]): 82%
percent of control binding at 10 µM (FAK; [3]): 100%
percent of control binding at 10 µM (TNNI3K; [3]): 92%
percent of control binding at 10 µM (CLK1; [3]): 37%
percent of control binding at 10 µM (MET(M1250T); [3]): 99%
percent of control binding at 10 µM (PKN1; [3]): 78%
Structure (SMILES): CNCc1ccc(-c2[nH]c3cc(F)cc4c3c2CCNC4=O)cc1 [Rucaparib]

percent of control binding at 10 µM (EGFR(L861Q); [4]): 91%
percent of control binding at 10 µM [1, 4]: 83%
percent of control binding at 10 µM (MLK1; [4]): 100%
percent of control binding at 10 µM (ROS1; [4]): 97%
percent of control binding at 10 µM (FAK; [4]): 100%
percent of control binding at 10 µM (TNNI3K; [4]): 84%
percent of control binding at 10 µM (CLK1; [4]): 99%
percent of control binding at 10 µM (MET(M1250T); [4]): 99%
percent of control binding at 10 µM (PKN1; [4]): 83%
Structure (SMILES): O=C(c1cc(Cc2n[nH]c(=O)c3ccccc23)ccc1F)N1CCN(C(=O)C2CC2)CC1 [Olaparib]

percent of control binding at 10 µM (EGFR(L861Q); [5]): 82%
percent of control binding at 10 µM [1, 5]: 100%
percent of control binding at 10 µM (MLK1; [5]): 77%
percent of control binding at 10 µM (ROS1; [5]): 94%
percent of control binding at 10 µM (FAK; [5]): 100%
percent of control binding at 10 µM (TNNI3K; [5]): 100%
percent of control binding at 10 µM (CLK1; [5]): 86%
percent of control binding at 10 µM (MET(M1250T); [5]): 99%
percent of control binding at 10 µM (PKN1; [5]): 74%
Structure (SMILES): Cn1ncnc1[C@H]1c2n[nH]c(=O)c3cc(F)cc(c23)N[C@@H]1c1ccc(F)cc1 [Talazoparib]

— article PMC7026418, “The kinase polypharmacology landscape of clinical PARP inhibitors” (Scientific Reports, 2020)
